12 compounds from PubChem BioAssay (NCI) can be followed below.

The structures appear in SMILES notation. “And” between values parts separate entries of the source, which are not always exact repeats. Equal entries are not always repeated.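 Five concentrations, 48 hours, 96-well plates. The concentration for 50% growth inhibition is given as GI50. TGI: total growth inhibition.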

What all share (test): NCI-60 cell line screen, 48 h
In test [1] the test system is ACHN renal.
In test [2] the test system is EKVX NSCLC.
Test [3] concerns HL-60(TB) leukemia.
Test [4] deals with HOP-62 NSCLC.
The subject of test [5] is M14 melanoma.
In test [6] the test system is MALME-3M melanoma.
The test system of test [7] is MOLT-4 leukemia.
Test [8] deals with SF-539 CNS.
Test [9] relates to SN12C renal.
The subject of test [10] is SNB-75 CNS.

As for `COc1cccc(/C=N/[N-]C(N)=O)c1[O-].[Cu+2].c1ccncc1`, the TGI is above 100 µM in [1]; 65.5 µM in [2]; 55.1 µM in [3]; 52.1 µM in test [4]; 31.4 µM in test [5]; 28.3 µM in test [6]. Moreover, the TGI in test [7] turned out to be 69.3 µM; in [8] it was 54.2 µM; in [9], 46.7 µM; in [10], 33.4 µM. Also, the GI50 in [3] is 26.5 µM.
For the compound `COC(=O)C1=CCS(=O)(=O)C1`, the TGI in test [1], in test [2], in test [3], in test [4], in test [5] and in test [6] was above 100 µM each time. Also, the TGI in test [7], in test [8], in [9] and in test [10] was above 100 µM each time.
Take `OC1/C(=C/c2ccccc2)CNC/C1=C\c1ccccc1` (configuration not stated): the TGI in test [1], in test [2], in test [3], in test [4], in test [5] and in test [6] was above 100 µM in each case. Further, the TGI in test [7], in [8], in test [9] and in [10] was above 100 µM each time.
On to `O=c1c(Br)ccc(Br)cc1Br`, for which the GI50 in test [1] was 1.26 µM; in test [2] it was 1.71 µM; in test [3], 0.662 µM; in [4], 2.38 µM; in test [5], 1.48 µM; in test [6] it was 1.85 µM. Also, the GI50 was 0.41 µM in test [7], 1.92 µM in test [8], 2.11 µM in [9] and 1.83 µM in test [10]. For the same compound, the TGI was 2.53 µM in [1]; 3.39 µM in test [2]; 2.67 µM in test [3]; 5.58 µM in test [4]; 2.91 µM in [5]; 4.05 µM in [6]. Also, the TGI in test [7] came out at 1.86 µM; in test [8], 4.52 µM; in test [9], 4.68 µM; in [10] it was 4.24 µM.
With `COc1nc(C(Cl)(Cl)Cl)c(Cl)c(OC)c1Cl`, the TGI in test [1] was > 54.1 µM and 73.5 µM; in test [2], > 94.7 µM and 78.3 µM; in test [3], > 60.3 µM and 71.8 µM; in [4] it was > 62.8 µM and 22.5 µM; in [5], > 83.7 µM and 74.5 µM; in test [6] it was > 65.8 µM and 64.4 µM. Further, the TGI in test [7] is > 67.4 µM and 62.3 µM; in test [8], > 86.8 µM and 77.2 µM; in test [9], > 52.9 µM and 74 µM; in test [10], 55.6 µM. Further, the GI50 is above 55.4 µM in [2]; above 41.9 µM in test [3]; above 43.2 µM in [4]; above 52 µM in [5]; above 45.4 µM in test [6]; above 44.9 µM in test [7]. In test [8], the GI50 was above 52 µM.
For `CCC1(O)CC(c2ccccc2)N(C)C(c2ccccc2)C1` (configuration not stated), the TGI in test [1], in [2], in test [3], in test [4], in test [5] and in test [6] was above 100 µM in each case. In addition, the TGI in [7], in [8], in [9] and in [10] was above 100 µM throughout.
On to `O=c1c2ccc(Br)cc2nc(-c2ccccc2)n1NC1OC(CO)C(O)C(O)C1O` (configuration not stated), for which the TGI in test [1], in [2], in test [3], in test [4], in test [5] and in [6] was above 100 µM each time. The TGI in test [7], in test [8], in [9] and in test [10] was above 100 µM throughout.
For `COc1ccc(/C=C/c2cnnc3ccccc23)cc1OC`, the TGI in test [1], in test [2], in test [3], in test [4], in test [5] and in test [6] was above 10 µM in each case. In addition, the TGI in test [7], in test [8], in test [9] and in test [10] was above 10 µM each time.
On to `Nc1nc(N)c(N=Nc2ccc([As](=O)(O)O)c(O)c2)c(N)n1`, for which the TGI in [1] is above 100 µM; in test [2] it was above 100 µM; in test [3], 13.2 µM; in test [4] it was above 100 µM; in test [5], above 100 µM; in test [6] it was above 100 µM. Besides, the TGI in test [7] was above 48.3 µM; in test [8], above 56.8 µM; in test [9] it was above 26.8 µM; in test [10], above 89.5 µM.
Take `CC1(C)OC(=O)C(c2ccsc2)C(=O)O1`: the TGI in [1], in [2], in [3], in [4], in test [5] and in [6] was above 100 µM in each case. In addition, the TGI in [7], in [8], in [9] and in [10] was above 100 µM throughout.
For `COc1ccc2c(c1)cn1c3ccc(OC)cc3[nH]c(=O)c21`, the GI50 in test [1] is below 0.0226 µM; in [2], below 0.0256 µM; in test [3], below 0.0113 µM; in test [4], below 0.0252 µM; in test [5], 0.027 µM; in test [7], below 0.0183 µM. The GI50 in test [8] was below 0.0159 µM; in test [9] it was below 0.0232 µM; in test [10], 0.0203 µM. Further, the TGI in test [1] was 1.69 µM; in test [2], 1.76 µM; in test [3], below 0.0219 µM; in test [4], 1.66 µM; in test [5], 1.4 µM; in [6], 2.75 µM. Also, the TGI in test [7] was 1.04 µM; in test [8], below 0.028 µM; in test [9], 1.65 µM; in test [10], 1.19 µM.
As for `O=C(c1ccccc1)C(c1ccccc1)C1(O)C(=O)Nc2ccc(Br)cc21` (configuration not stated), the TGI is above 100 µM in test [1]; above 100 µM in test [2]; 48.2 µM in test [3]; above 100 µM in [4]; above 100 µM in test [5]; above 100 µM in test [6]. Moreover, the TGI in test [7], in test [8], in test [9] and in test [10] was above 100 µM each time.
